{"source": "paper PMC6177136", "about": "“Hybrid topoisomerase I and HDAC inhibitors as dual action anticancer agents” (PLoS ONE, 2018)", "assay_type_in_all_cases": "cell-based, Human", "key": {"U-2932": {"system": "U-2932", "test": "Cytotoxicity assay (MTT, 72 h) U-2932", "settings": "read-out: IC50 ± SD U-2932"}, "NB4": {"system": "NB4", "test": "Cytotoxicity assay (MTT, 72 h) NB4", "settings": "read-out: IC50 ± SD NB4"}, "HT29": {"system": "HT29", "test": "Cytotoxicity assay (SRB, 72 h) HT29"}, "Capan 1": {"system": "Capan 1", "test": "Cytotoxicity assay (SRB, 72 h) Capan 1"}, "MAVER-2": {"system": "MAVER-2", "test": "Cytotoxicity assay (MTT, 72 h) MAVER-2", "settings": "read-out: IC50 ± SD MAVER-2"}, "JECO-1": {"system": "JECO-1", "test": "Cytotoxicity assay (MTT, 72 h) JECO-1", "settings": "72 h, MTT assay; read-out: IC50 ± SD JECO-1"}, "KM-H2": {"system": "KM-H2", "test": "Cytotoxicity assay (MTT, 72 h) KM-H2", "settings": "72 h, MTT assay; read-out: IC50 ± SD KM-H2"}, "OCI-LY3": {"system": "OCI-LY3", "test": "Cytotoxicity assay (MTT, 72 h) OCI-LY3", "settings": "72 h, MTT assay; read-out: IC50 ± SD OCI-LY3", "procedure": "(§1) Human tumor cells were seeded in 96-well cell culture plastic plates, allowed to attach, and exposed to scalar concentrations of the test compounds."}, "HepG2": {"system": "HepG2", "test": "Cytotoxicity assay (SRB, 72 h) HepG2"}, "L-428": {"system": "L-428", "test": "Cytotoxicity assay (MTT, 72 h) L-428", "settings": "72 h, MTT assay; read-out: IC50 ± SD L-428", "procedure": "as §1"}, "NCI-H460": {"system": "NCI-H460", "test": "Cytotoxicity assay (SRB, 72 h) NCI-H460", "settings": "72 h, SRB assay, read-out: IC50 ± SD NCI-H460"}, "DU145": {"system": "DU145", "test": "Cytotoxicity assay (SRB, 72 h) DU145"}, "A2780-Dx": {"system": "A2780-Dx", "test": "Cytotoxicity assay (SRB, 72 h) A2780-Dx", "settings": "for IC50: 72 h, SRB assay, multidrug-resistant ovarian carcinoma, read-out: IC50 ± SD A2780-Dx; for RI (Resistance Index): A2780-Dx versus A2780"}, "A431": {"system": "A431", "test": "Cytotoxicity assay (SRB, 72 h) A431"}, "DG-75": {"system": "DG-75", "test": "Cytotoxicity assay (MTT, 72 h) DG-75"}, "HeLa": {"system": "HeLa", "test": "Cytotoxicity assay (SRB, 72 h) HeLa", "settings": "read-out: IC50 ± SD HeLa"}, "MINO": {"system": "MINO", "test": "Cytotoxicity assay (MTT, 72 h) MINO", "settings": "72 h, MTT assay; read-out: IC50 ± SD MINO"}, "A2780": {"system": "A2780", "test": "Cytotoxicity assay (SRB, 72 h) A2780"}, "[1]": {"settings": "Homo sapiens, CAPAN-1, read-out: IC50 ± SD Capan 1"}}, "note": "Read-outs that look alike come from different tables or passages of the source."}
{"molecule": "CCc1c2c(nc3ccc(OCCCCCCC(=O)NO)cc13)-c1cc3c(c(=O)n1C2)COC(=O)[C@]3(O)CC", "note": "[CY700]", "values": [{"measurement": "IC50", "setting": "U-2932", "result": "900 ± 300", "unit": "nM"}, {"measurement": "IC50", "setting": "NB4", "result": "240 ± 60", "unit": "nM"}, {"measurement": "IC50", "setting": "HT29; read-out: IC50 ± SD HT29", "result": "1200 ± 200", "unit": "nM"}, {"measurement": "IC50", "setting": "Capan 1; read-out: IC50 ± SD Capan 1", "result": "960 ± 80", "unit": "nM"}, {"measurement": "IC50", "setting": "MAVER-2", "result": "400 ± 80", "unit": "nM"}, {"measurement": "IC50", "setting": "JECO-1", "result": "1000 ± 400", "unit": "nM"}, {"measurement": "IC50", "setting": "KM-H2", "result": "1500 ± 500", "unit": "nM"}, {"measurement": "IC50", "setting": "OCI-LY3", "result": "340 ± 40", "unit": "nM"}, {"measurement": "IC50", "setting": "HepG2; read-out: IC50 ± SD HepG2", "result": "1500 ± 400", "unit": "nM"}, {"measurement": "IC50", "setting": "L-428", "result": "1700 ± 200", "unit": "nM"}, {"measurement": "IC50", "setting": "NCI-H460", "result": "360 ± 20", "unit": "nM"}, {"measurement": "IC50", "setting": "DU145; read-out: IC50 ± SD DU145", "result": "870 ± 40", "unit": "nM"}, {"measurement": "IC50", "setting": "A2780-Dx", "result": "5900 ± 1000", "unit": "nM"}, {"measurement": "RI (Resistance Index)", "setting": "A2780-Dx", "result": 2.4}, {"measurement": "IC50", "setting": "A431; read-out: IC50 ± SD A431", "result": "790 ± 100", "unit": "nM"}, {"measurement": "IC50", "setting": "DG-75; 72 h, MTT assay, read-out: IC50 ± SD DG-75", "result": "> 10000", "unit": "nM"}, {"measurement": "percentage in parentheses after IC50 >10, DG-75", "setting": "DG-75; meaning not defined in the paper, given beside >10 μM", "result": 18, "unit": "%"}, {"measurement": "IC50", "setting": "HeLa", "result": "3300 ± 900", "unit": "nM"}, {"measurement": "IC50", "setting": "MINO", "result": "370 ± 100", "unit": "nM"}, {"measurement": "IC50", "setting": "A2780; read-out: IC50 ± SD A2780", "result": "2500 ± 300", "unit": "nM"}]}
{"molecule": "CC[C@@]1(O)C(=O)OCc2c1cc1n(c2=O)Cc2c-1nc1ccccc1c2C=NOCC(=O)NO", "note": "[Compound 3a, Camptothecin-7-yl(methyleneaminooxy)-acetic acid hydroxyamide]", "values": [{"measurement": "IC50", "setting": "Capan 1; [1]", "result": "50 ± 6", "unit": "nM"}, {"measurement": "IC50", "setting": "NCI-H460; Homo sapiens, NCI-H460", "result": "360 ± 100", "unit": "nM"}]}
{"molecule": "CC[C@@]1(O)C(=O)OCc2c1cc1n(c2=O)Cc2c-1nc1ccccc1c2C=NOCCCCCCC(=O)NO", "note": "[Compound 3c, 7-(camptothecin-7-ylmethyleneaminooxy)-heptanoic acid hydroxyamide]", "values": [{"measurement": "IC50", "setting": "HT29; Homo sapiens, HT-29, read-out: IC50 ± SD HT29", "result": "45 ± 10", "unit": "nM"}, {"measurement": "IC50", "setting": "Capan 1; [1]", "result": "43 ± 3", "unit": "nM"}, {"measurement": "IC50", "setting": "HepG2; Homo sapiens, HepG2, read-out: IC50 ± SD HepG2", "result": "680 ± 200", "unit": "nM"}, {"measurement": "IC50", "setting": "NCI-H460; Homo sapiens, NCI-H460", "result": "198 ± 180", "unit": "nM"}, {"measurement": "IC50", "setting": "DU145; Homo sapiens, DU-145, read-out: IC50 ± SD DU145", "result": "29 ± 1", "unit": "nM"}, {"measurement": "RI (Resistance Index)", "setting": "A2780-Dx", "result": 1.7}, {"measurement": "IC50", "setting": "A2780-Dx; Homo sapiens, A2780/DX", "result": "65 ± 10", "unit": "nM"}, {"measurement": "IC50", "setting": "A431; Homo sapiens, A-431, read-out: IC50 ± SD A431", "result": "26 ± 1", "unit": "nM"}, {"measurement": "IC50", "setting": "HeLa; Homo sapiens, HeLa", "result": "2400 ± 500", "unit": "nM"}, {"measurement": "IC50", "setting": "A2780; Homo sapiens, A2780, read-out: IC50 ± SD A2780", "result": "38 ± 8", "unit": "nM"}]}
